In US12691105B2, “Compositions containing nicotinamide and vitamin B6 and methods of using such compositions for treating cachexia or precachexia” (SOCIETE DES PRODUITS NESTLE S.A., priority 2020, dated 2026):

How the values were obtained:
Human primary myoblasts = experiment: Myogenic amplification and commitment of muscle stem cells (Pax7/MyoD staining); format: cell-based; conditions: dose response, donors 1 and 2 pooled, 96 hours, control DMSO 1%; for proportion of MyoD+ cells (normalized to total cell number, fold change compared to control): FIG. 1B/2B
Description: Human Skeletal Muscle Myoblasts were purchased from Lonza (https://bioscience.lonza.com). These cells were isolated from the upper arm or leg muscle tissue of normal donors and used after the second passage. Several donors were tested to ensure cell viability and purity before selecting the final donors, which are a person (refer thereafter as Donor 1), a person (refer thereafter as Donor 2) and a person (refer thereafter as Donor 3). Human primary myoblasts were seeded in 384 well plates at a density of 1′000 cells per well in skeletal muscle growth medium (SKM-M, AMSbio). For treatment, compounds were directly added to the myoblast cultures 16 hours after initial plating. All cultures were then grown for 96 hours. Cells were stained for Pax7 and MyoD expression using antibodies directed against Pax7 and MyoD and counterstained with Hoechst 33342 to visualize cell nuclei. Pax7+ cells are defined as cells that express Pax7 regardless of MyoD expression. […] Image acquisition was performed using the ImageXpress (Molecular Devices) platform. Custom module analysis based on Multi-Wavelength Cell Scoring of the MetaXpress software was used for quantification. *, **, ***, **** indicates difference from the control, One-way ANOVA, with p<0.05, p<0.01, p<0.001, p<0.0001, respectively. Data are presented as Mean+/−SEM Human primary myoblasts from different donors (donor 1, donor 2 or donor 3) were seeded in 384 well plates at a density of 1′000 cells per well in skeletal muscle growth medium (SKM-M, AMSbio). For treatment, compounds were directly added to the myoblast cultures 16 hours after initial plating. All cultures were then grown for 96 hours. Cells were stained for Pax7 and MyoD expression using antibodies directed against Pax7 and MyoD and counterstained with Hoechst 33342 to visualize cell nuclei. Pax7+ cells are defined as cells that express Pax7 regardless of MyoD expression. […] Custom module analysis based on Multi-Wavelength Cell Scoring of the MetaXpress software was used for quantification. […] Data are expressed as number of cells per arear of injured muscle.

[1] = system: PC-3 cell line (prostate adenocarcinoma); experiment: Safety of compounds as non-oncogenic: cancer cell proliferation, PC-3; format: cell-based, human; conditions: FIG. 7A, serum and FGF positive controls
Description: (§1) The safety of the compounds was tested in two different human cancer cell lines purchased from ATCC. FIG. 7A cell line PC-3 was of prostate/adenocarcinoma from a person, and FIG. 7B cell line PANC-1 was from a pancreatic duct epitheloid carcinoma from a person. Serum and FGF (Fibroblast Growth Factor) conditions were used as positive controls. *, **, ***, **** indicates difference from the control, One-way ANOVA, with p<0.05, p<0.01, p<0.001, p<0.0001, respectively. Data are presented as Mean+/−SEM.
(§2) The safety of the compounds were tested in two different human cancer cell lines purchased from ATCC. Serum and FGF (Fibroblast Growth Factor) conditions were used as positive controls. *, **, ***, **** indicates difference from the control, One-way ANOVA, with p<0.05, p<0.01, p<0.001, p<0.0001, respectively. Data are presented as Mean+/−SEM.
Cell line PC-3 of prostate/adenocarcinoma from a person (FIG. 7A)

[2] = system: PANC-1 cell line (pancreatic duct epitheloid carcinoma); experiment: Safety of compounds as non-oncogenic: cancer cell proliferation, PANC-1; format: cell-based, human; conditions: FIG. 7B, serum and FGF positive controls
Description: as §1, §2
Cell line PANC-1 was from a pancreatic duct epitheloid carcinoma from a person (FIG. 7B).

Compound: NC(=O)c1cccnc1 [Nicotinamide]
- proportion of Pax7+ cells (normalized to total cell number, fold change compared to control) (Human primary myoblasts; FIG. 1A): increasing the proportion of both amplifying (Pax7+) and differentiating (MyoD+) cells in a dose dependent manner
- proportion of MyoD+ cells (normalized to total cell number, fold change compared to control) (Human primary myoblasts): increasing the proportion of both amplifying (Pax7+) and differentiating (MyoD+) cells in a dose dependent manner
- proliferation of cancer cells [1]: no effect on the proliferation of cancer cells
- proliferation of cancer cells [2]: no effect on the proliferation of cancer cells

Compound: Cc1ncc(CO)c(CO)c1O [Pyridoxine]
- proportion of MyoD+ cells (normalized to total cell number, fold change compared to control) (Human primary myoblasts): increasing the proportion of differentiating (MyoD+) cells in a dose dependent manner
- proliferation of cancer cells [1]: no effect on the proliferation of cancer cells
- proliferation of cancer cells [2]: no effect on the proliferation of cancer cells
